From patent publication US20250122225A1, “MASP-2 INHIBITORS AND METHODS OF USE” (Omeros Corporation, priority 2023, published 2025)
Counter-ions that a name gives are not always drawn.

Key:
MASP-2 (CCP1-CCP2-SP) = molecular target: T1, MASP-2 (CCP1-CCP2-SP) (Homo sapiens, UniProt O00187); test: Enzymatic assay for MASP-2 inhibitory activity (fluorogenic substrate); assay type: biochemical
T1 construct: 15 μL of Enzyme MASP-2 (CCP1-CCP2-SP) in Assay Buffer
Summary of the method: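 MASP-2 (CCP1-CCP2-SP) cleaved a fluorogenic substrate based on the C2 cleavage site in 20 mM HEPES pH 7.4, 140 mM NaCl, 0.1% Tween 20 at room temperature. After 20 min the reaction was stopped with 0.1 M acetic acid and fluorescence read. % activity was normalized to DMSO-only and no-enzyme controls; IC50 taken as Ki.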

human α-thrombin = molecular target: T2, human α-thrombin (Homo sapiens, UniProt P00734); test: Enzymatic assay for thrombin (fluorogenic peptide substrate Boc-VPR-AMC); assay type: biochemical
T2 construct: enzyme (human α-thrombin (BioPharm® Lab.)) in assay buffer; purchased BioPharm® Lab
Summary of the method: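 Human α-thrombin was run with the fluorogenic substrate Boc-VPR-AMC in 20 mM Hepes pH 7.4, 140 mM NaCl, 0.1% Tween 20 at room temperature for 20 min, then stopped with 0.1 M acetic acid. % activity was normalized to DMSO and no-enzyme controls. Under linear conditions IC50 equalled Ki, except for tight-binding inhibitors.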

T1 sequence (O00187 445-686 limits assumed): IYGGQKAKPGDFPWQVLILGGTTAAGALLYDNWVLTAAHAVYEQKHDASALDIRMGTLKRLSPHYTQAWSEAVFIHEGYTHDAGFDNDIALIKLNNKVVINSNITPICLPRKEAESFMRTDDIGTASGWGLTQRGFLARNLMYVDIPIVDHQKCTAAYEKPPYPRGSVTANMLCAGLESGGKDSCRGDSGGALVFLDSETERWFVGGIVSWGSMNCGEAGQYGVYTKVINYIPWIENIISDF
T1 sequence (O00187 287-444 partner limits assumed): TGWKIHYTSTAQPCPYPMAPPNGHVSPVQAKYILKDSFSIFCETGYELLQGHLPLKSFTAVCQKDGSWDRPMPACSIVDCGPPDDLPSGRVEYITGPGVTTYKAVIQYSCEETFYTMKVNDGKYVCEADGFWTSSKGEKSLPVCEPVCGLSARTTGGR

| Ki (MASP-2 (CCP1-CCP2-SP)) [µM] | Ki (human α-thrombin) [µM] | SMILES |
| --- | --- | --- |
| < 0.5 | 2.5 to 10 | Cc1cc(F)cc(CNc2nc(-c3ccnn3C)c3n(c2=O)[C@H](C(=O)NCc2cc4c(s2)CNC4)CC3)c1 [Compound 209, (S)—N-((5,6-dihydro-4H-thieno[2,3-c]pyrrol-2-yl)methyl)-3-((3-fluoro-5-methylbenzyl)amino)-1-(1-methyl-1H-pyrazol-5-yl)-4-oxo-4,6,7,8-tetrahydropyrrolo[1,2-a]pyrazine-6-carboxamide trifluoroacetate] |
| < 0.5 | 0.5 to 2.5 | O=C(NCc1cc2cnccc2[nH]1)[C@@H]1CCc2cnc(NCc3ccccc3)c(=O)n21 [Compound 102, (S)—N-((1H-pyrrolo[3,2-c]pyridin-2-yl)methyl)-3-(benzylamino)-4-oxo-4,6,7,8-tetrahydropyrrolo[1,2-a]pyrazine-6-carboxamide] |
| < 0.5 | > 25 | O=C(NCc1cc2cnccc2[nH]1)[C@@H]1CCc2c(Cl)nc(NCCC(F)F)c(=O)n21 [Compound 19, (S)-N-((1H-pyrrolo[3,2-c]pyridin-2-yl)methyl)-1-chloro-3-((3,3-difluoropropyl)amino)-4-oxo-4,6,7,8-tetrahydropyrrolo[1,2-a]pyrazine-6-carboxamide] |
| < 0.5 | > 25 | Cc1cc2[nH]c(CNC(=O)[C@@H]3CCc4cnc(NCc5ccccc5)c(=O)n43)cc2cn1 [Compound 103, (S)-3-(benzylamino)-N-((6-methyl-1H-pyrrolo[3,2-c]pyridin-2-yl)methyl)-4-oxo-4,6,7,8-tetrahydropyrrolo[1,2-a]pyrazine-6-carboxamide] |
| < 0.5 | 2.5 to 10 | Cc1nc(N)ccc1CNC(=O)[C@@H]1CCc2c(Cl)nc(NCc3ccc(Cl)cc3)c(=O)n21 [Compound 30, trifluoroacetate] |
| < 0.5 | < 0.5 | Cc1cc(F)cc(CNc2ncc3n(c2=O)[C@H](C(=O)NCc2ccc(N)c(Cl)c2)CC3)c1 [Compound 188, (S)-N-(4-amino-3-chlorobenzyl)-3-((3-fluoro-5-methylbenzyl)amino)-4-oxo-4,6,7,8-tetrahydropyrrolo[1,2-a]pyrazine-6-carboxamide] |
| < 0.5 | < 0.5 | CC(C)(C)[C@@H](Nc1ncc2n(c1=O)[C@H](C(=O)NCc1cc3c(s1)CNC3)CC2)c1ccc(F)cc1 [Compound 280, (S)—N-((5,6-dihydro-4H-thieno[2,3-c]pyrrol-2-yl)methyl)-3-(((R)-1-(4-fluorophenyl)-2,2-dimethylpropyl)amino)-4-oxo-4,6,7,8-tetrahydropyrrolo[1,2-a]pyrazine-6-carboxamide] |
| < 0.5 | > 25 | CC(C)[C@@H](Nc1ncc2n(c1=O)[C@H](C(=O)N[C@@H](C)c1cc3c(s1)CNC3)CC2)c1ccccc1 [Compound 275, (S)-N-((S)-1-(5,6-dihydro-4H-thieno[2,3-c]pyrrol-2-yl)ethyl)-3-(((R)-2-methyl-1-phenylpropyl)amino)-4-oxo-4,6,7,8-tetrahydropyrrolo[1,2-a]pyrazine-6-carboxamide trifluoroacetate] |
| < 0.5 | 2.5 to 10 | O=C(NCc1cc2c(s1)CNC2)[C@@H]1CCc2cnc(N[C@@H]3CCc4ccc(-c5ccccc5)cc43)c(=O)n21 [Compound 260, (S)-N-((5,6-dihydro-4H-thieno[2,3-c]pyrrol-2-yl)methyl)-4-oxo-3-(((R)-6-phenyl-2,3-dihydro-1H-inden-1-yl)amino)-4,6,7,8-tetrahydropyrrolo[1,2-a]pyrazine-6-carboxamide trifluoroacetate] |
| < 0.5 | 0.5 to 2.5 | Cc1ccccc1CNc1ncc2n(c1=O)[C@H](C(=O)NCc1cc3cnccc3[nH]1)CC2 [Compound 53, (S)-N-((1H-pyrrolo[3,2-c]pyridin-2-yl)methyl)-3-((2-methylbenzyl)amino)-4-oxo-4,6,7,8-tetrahydropyrrolo[1,2-a]pyrazine-6-carboxamide] |
| < 0.5 | 0.5 to 2.5 | Cc1cccc(CNc2ncc3n(c2=O)[C@H](C(=O)NCc2cc4cnccc4[nH]2)CC3)c1C [Compound 59, (S)-N-((1H-pyrrolo[3,2-c]pyridin-2-yl)methyl)-3-((2,3-dimethylbenzyl)amino)-4-oxo-4,6,7,8-tetrahydropyrrolo[1,2-a]pyrazine-6-carboxamide] |
| < 0.5 | 2.5 to 10 | O=C(NCc1cc2cnccc2[nH]1)[C@@H]1CCc2c(Cl)nc(NCc3cccc(CO)c3)c(=O)n21 [Compound 6, (S)-N-((1H-pyrrolo[3,2-c]pyridin-2-yl)methyl)-1-chloro-3-((3-(hydroxymethyl)benzyl)amino)-4-oxo-4,6,7,8-tetrahydropyrrolo[1,2-a]pyrazine-6-carboxamide] |
| 0.5 to 2.5 | 10 to 25 | O=C(NCc1cc2cnccc2[nH]1)[C@@H]1CCc2cnc(N3CC(c4ccccc4)C3)c(=O)n21 [Compound 84, (S)-N-((1H-pyrrolo[3,2-c]pyridin-2-yl)methyl)-4-oxo-3-(3-phenylazetidin-1-yl)-4,6,7,8-tetrahydropyrrolo[1,2-a]pyrazine-6-carboxamide] |
| < 0.5 | 0.5 to 2.5 | CC(C)[C@@H](Nc1ncc2n(c1=O)[C@H](C(=O)N[C@H](C)c1cc3c(s1)CNC3)CC2)c1ccccc1 [Compound 274, (S)-N-((R)-1-(5,6-dihydro-4H-thieno[2,3-c]pyrrol-2-yl)ethyl)-3-(((R)-2-methyl-1-phenylpropyl)amino)-4-oxo-4,6,7,8-tetrahydropyrrolo[1,2-a]pyrazine-6-carboxamide trifluoroacetate] |

More lines, now with the values behind:

| SMILES | Ki (MASP-2 (CCP1-CCP2-SP)) [µM] | Ki (human α-thrombin) [µM] |
| --- | --- | --- |
| Cc1cc(F)c(F)c(CNc2ncc3n(c2=O)[C@H](C(=O)N[C@H](C)c2ccc(N)nc2)CC3)c1 [Compound 224, (S)—N—((R)-1-(6-aminopyridin-3-yl)ethyl)-3-((2,3-difluoro-5-methylbenzyl)amino)-4-oxo-4,6,7,8-tetrahydropyrrolo[1,2-a]pyrazine-6-carboxamide trifluoroacetate] | < 0.5 | 2.5 to 10 |
| Cc1ccccc1[C@@H](C)Nc1ncc2n(c1=O)[C@H](C(=O)NCc1ccc(N)nc1C)CC2 [Compound 82, (S)-N-((6-amino-2-methylpyridin-3-yl)methyl)-4-oxo-3-(((R)-1-(o-tolyl)ethyl)amino)-4,6,7,8-tetrahydropyrrolo[1,2-a]pyrazine-6-carboxamide] | < 0.5 | < 0.5 |
| Cc1nc(N)ccc1CNC(=O)[C@@H]1CCc2c(Cl)nc(NCC3CCOC3)c(=O)n21 (stereo partly drawn) [Compound 118, (6S)—N-((6-amino-2-methylpyridin-3-yl)methyl)-1-chloro-4-oxo-3-(((tetrahydrofuran-3-yl)methyl)amino)-4,6,7,8-tetrahydropyrrolo[1,2-a]pyrazine-6-carboxamide] | < 0.5 | 10 to 25 |
| N=C(N)c1ccc(CNC(=O)[C@@H]2CCc3c(Cl)nc(NCc4ccccc4)c(=O)n32)cc1 [Compound 243] | < 0.5 | < 0.5 |
| CC[C@@H](Nc1ncc2n(c1=O)[C@H](C(=O)NCc1cc3c(s1)CNC3)CC2)c1ccccc1C [Compound 265, (S)-N-((5,6-dihydro-4H-thieno[2,3-c]pyrrol-2-yl)methyl)-4-oxo-3-(((R)-1-(o-tolyl)propyl)amino)-4,6,7,8-tetrahydropyrrolo[1,2-a]pyrazine-6-carboxamide trifluoroacetate] | < 0.5 | < 0.5 |
| Cc1ccccc1[C@@H](C)Nc1ncc2n(c1=O)[C@H](C(=O)NCc1cc3c(s1)CNC3)CC2 [Compound 93, (S)-N-((5,6-dihydro-4H-thieno[2,3-c]pyrrol-2-yl)methyl)-4-oxo-3-(((R)-1-(o-tolyl)ethyl)amino)-4,6,7,8-tetrahydropyrrolo[1,2-a]pyrazine-6-carboxamide] | < 0.5 | < 0.5 |
| O=C(NCc1cc2c(s1)CNC2)[C@@H]1CCc2cnc(NCC3(Cc4ccccc4)CCCCC3)c(=O)n21 [Compound 252] | < 0.5 | 2.5 to 10 |
| Cc1cccc(CNc2nc(Cl)c3n(c2=O)[C@H](C(=O)NCc2cc4cnccc4[nH]2)CC3)c1C [Compound 15, (S)-N-((1H-pyrrolo[3,2-c]pyridin-2-yl)methyl)-1-chloro-3-((2,3-dimethylbenzyl)amino)-4-oxo-4,6,7,8-tetrahydropyrrolo[1,2-a]pyrazine-6-carboxamide] | < 0.5 | 2.5 to 10 |
| O=C(NCc1cc2c(s1)CNC2)[C@@H]1CCc2c(Cl)nc(NCCc3ccccc3)c(=O)n21 [Compound 242] | < 0.5 | < 0.5 |
| Cc1ccc(C)c(CNc2ncc3n(c2=O)[C@H](C(=O)NCc2ccc(N)nc2C)CC3)c1 [Compound 55, (S)-N-((6-amino-2-methylpyridin-3-yl)methyl)-3-((2,5-dimethylbenzyl)amino)-4-oxo-4,6,7,8-tetrahydropyrrolo[1,2-a]pyrazine-6-carboxamide] | < 0.5 | < 0.5 |
| NCc1ccc(CNC(=O)[C@@H]2CCc3c(Cl)nc(NCc4ccc5c(c4)CCCC5)c(=O)n32)s1 [Compound 225, (S)—N-((5-(aminomethyl)thiophen-2-yl)methyl)-1-chloro-4-oxo-3-(((5,6,7,8-tetrahydronaphthalen-2-yl)methyl)amino)-4,6,7,8-tetrahydropyrrolo[1,2-a]pyrazine-6-carboxamide trifluoroacetate] | < 0.5 | > 25 |
| Cc1nc(N)ccc1CNC(=O)[C@H]1CCc2c(Cl)nc(NCc3ccccc3)c(=O)n21 [Compound 135, (R)-N-((6-amino-2-methylpyridin-3-yl)methyl)-3-(benzylamino)-1-chloro-4-oxo-4,6,7,8-tetrahydropyrrolo[1,2-a]pyrazine-6-carboxamide] | < 0.5 | 2.5 to 10 |
